Test system: soluble collagen and insoluble collagen of abdominal skin
Test: Oral administration test in rats: L-hydroxyproline in soluble and insoluble collagen of abdominal skin (Experimental Example 2)
Assay type: in vivo, F344/DuCrlCrlj rats
Details: oral 10 mL/kg once a day for 12 days, abdominal skin on 13th day, soluble plus insoluble collagen, mean±standard deviation, 4 rats per group
Method: To the rats of the administration groups 7-11 were each administered with compositions 7-11 obtained by dissolving collagen peptide and L-hydroxyproline in purified water to the contents shown in Table 3 at 10 mL/kg. The rats of the control administration group 12 were administered with purified water at 10 mL/kg.
On the 13th day from the start of the administration test, the abdomen was shaved under anesthesia by intraperitoneal administration of pentobarbital, and the abdominal skin was collected. […] The values are shown by mean±standard deviation.

SMILES: O=C(O)[C@@H]1C[C@@H](O)CN1 [composition 11, trans-4-hydroxy-L-proline]
- L-hydroxyproline amount/wet weight of skin: 10.66 ± 1.69 mg/g

From patent publication US9492494B2, “Oral composition” (Kyowa Hakko Bio Co., Ltd., priority 2007, dated 2016)
